The text below walks through data of US11033526B2 (priority 2015, dated 2021).

Read-outs that look alike come from different tables or passages of the source.

One data set deals with WT mice. Briefly: Body weight and motor behaviour of treated WT mice. In kind it is in vivo, mouse. On the procedure:
(§1) Transgenic mouse model and drug administration. CMVMJD135 mice were generated as described previously. DNA extraction, animal genotyping and CAG repeat size analyses were performed as previously described. The mean repeat size (±s.d.) for all mice used was 130±2. […] Only male mice were used in this study. […] Treatment was initiated at five weeks of age, one week before the expected onset of the first neurological symptoms. The trial was ended at 34 weeks of age, according to the humane endpoints established for the non-treated CMVMJD135 mice. All animal procedures were conducted in accordance with European regulations (European Union Directive 86/609/EEC). Animal facilities and the people directly involved in animal experiments (ATC, SE, ASF, SDS) were certified by the Portuguese regulatory entity-[…]. All of the protocols performed were approved by the Animal Ethics Committee of the Life and Health Sciences Research Institute, University of Minho. Behavioural assessment. […] All behavioural tests started in a pre-symptomatic stage (4 weeks) and were conducted until 30 or 34 weeks of age (FIG. 5a). Neurological tests and general health assessment were performed using the SHIRPA protocol, enriched with the hanging wire test. The dragging of the paws and the stride length were evaluated with footprinting analysis. Motor behaviour was further assessed using the balance beam walk test (12 mm square and 17 mm round beams) and the motor swimming test. All behavioural tests were performed as previously described (Silva-Fernandes, A. et al. Chronic Treatment with 17-DMAG Improves Balance and Coordination in A New Mouse Model of Machado-Joseph Disease. Neurotherapeutics (2014). Body weight was also registered for each evaluation time point.

Data set [1] concerns AT3q130 animals (mutant ATXN3). Description: C. elegans assay for motility defects in AT3q130 animals. In kind it is in vivo. Conditions: for mutant ATXN3-mediated neuronal dysfunction (locomotion defects): liquid culture, four day old animals. On the procedure: C. elegans assays for motility defects and aggregation. Animals (N2, AT3 WT or AT3q130) were grown in liquid culture in a 96-well plate format, with the chemical compounds, as described above. Four day old animals were transferred from the 96-well plates onto an unseeded NGM plate (equilibrated at 20° C.). Plates were allowed to dry for 1 hour before starting the assays. Motility assays were performed at 20° C. as previously described. Motor behaviour assays were run in triplicates or quadruplicates (n=3 or 4), with a total of at least 150 animals tested per genotype and/or compound. For confocal dynamic imaging and quantification of ATXN3 aggregation, live animals were immobilized with 3 mM levamisole (Sigma, USA) and mounted on a 3% agarose pad. All images were captured on an Olympus FV1000 (Japan) or Zeiss LSM 510 (Germany) confocal microscopes, under a 60× oil (NA=1.35) or 63× water (NA=1.0) objectives. Z-series imaging was acquired for all vehicle- and compound-treated animals, using a 515/514 nm laser excitation line for YFP fusion proteins. The pinhole was adjusted to 1.0 Airy unit of optical slice, and a scan was acquired every˜0.5 μm along the Z-axis. For quantification of aggregates three parameters were measured: area of aggregates/total area; number of aggregates/total area and number of aggregates. Values shown are the mean (normalized to vehicle treated control) of eight or more animals per group, unless noted otherwise.

Data set [2] deals with CMVMJD135 mice. Description: Behavioural assessment of CMVMJD135 mice under chronic oral treatment. In kind it is in vivo, mouse. As for the experimental part:
as §1, with “Neurological tests and general health assessment were performed using the SHIRPA protocol, enriched with the hanging wire test.” left out, “All behavioural tests were performed as previously described (Silva-Fernandes, A. et al. Chronic Treatment with 17-DMAG Improves Balance and Coordination in A New Mouse Model of Machado-Joseph Disease. Neurotherapeutics (2014). Body weight was also registered for each evaluation time point.” left out

Data set [3] has as its system CMVMJD135 mice. Conditions: cited from earlier work.

As to `CN(C)CCCC1(c2ccc(F)cc2)OCc2cc(C#N)ccc21` (stereo not drawn) [citalopram], the “behaviour of treated WT mice versus untreated littermates” value with WT mice was “behaved similarly”. Besides, in the data set with WT mice (8 mg/kg), the “beam walk test, WT mice” value was “No differences”; the “body weight of WT mice” value was “significant increase”; the “motor swimming test, WT mice” value is listed as “No differences”. For the same compound, the “body weight of WT mice” value with WT mice (13 mg/kg) is “significant increase”. Also, the EC50 in data set [1] (Caenorhabditis elegans, dose-response profile, read-out: half-maximal effective concentration (EC50), locomotion defects) turned out to be 45 µM. Further, in the data set with CMVMJD135 mice [2] (CMVMJD135 mice), the “delay of manifestation of motor swimming defects” value is on record as “at least 20 weeks”. Besides, in the data set on CMVMJD135 mice [2] (at 30 weeks, CMVMJD135), the “percentage of effect in motor swimming test” value was found to be 79%.

For `O=C1CC2(CCCC2)CC(=O)N1CCCCN1CCN(c2ncccn2)CC1` [buspirone], the “mutant ATXN3-mediated neuronal dysfunction (locomotion defects)” value in data set [1] is given as “ameliorated”.

Consider `CC(C)NCC(O)COc1cccc2[nH]ccc12` (stereo not drawn) [pindolol], for which the “mutant ATXN3-mediated neuronal dysfunction (locomotion defects)” value in data set [1] is “ameliorated”.

As to `CN(C)CCC[C@@]1(c2ccc(F)cc2)OCc2cc(C#N)ccc21` [escitalopram], the “mutant ATXN3-mediated neuronal dysfunction (locomotion defects)” value in data set [1] is reported as “beneficial effects”.

For the compound `CN1C[C@H](CO)C=C2c3cccc4[nH]cc(c34)C[C@H]21` [lysergol], the “mutant ATXN3-mediated neuronal dysfunction (locomotion defects)” value in data set [1] is “ameliorated”.

Consider `CO[C@H]1/C=C\C=C(/C)C(=O)NC2=CC(=O)C(NCCN(C)C)=C(C[C@@H](C)C[C@H](OC)[C@H](O)[C@@H](C)/C=C(\C)[C@@H]1OC(N)=O)C2=O` [17-DMAG], for which the “delay of manifestation of motor swimming defects” value with CMVMJD135 mice [3] (CMVMJD135 mice, previous findings (Silva-Fernandes 2014)) is reported as “eight”. Moreover, the “percentage of effect in motor swimming test” value in the data set with CMVMJD135 mice [3] (at 30 weeks, CMVMJD135, previous findings (Silva-Fernandes 2014)) is 33%.

Regarding `CN1C[C@H](C(=O)N[C@]2(C)O[C@@]3(O)[C@@H]4CCCN4C(=O)[C@H](Cc4ccccc4)N3C2=O)C[C@@H]2c3cccc4[nH]cc(c34)C[C@H]21` [dihydroergotamine], the “mutant ATXN3-mediated neuronal dysfunction (locomotion defects)” value in data set [1] is “ameliorated”.
